What was measured:
Mer tyrosine kinase = Mer tyrosine kinase (Homo sapiens (Human), UniProt Q12866); assay: Evaluation of activity against Mer tyrosine kinase; assay type: biochemical
Tyro3 tyrosine kinase = Tyro3 tyrosine kinase (Homo sapiens (Human), UniProt Q06418); assay: Evaluation of activity against Tyro3 tyrosine kinase; assay type: biochemical
Sequence of Tyro3 tyrosine kinase (Q06418 41-890): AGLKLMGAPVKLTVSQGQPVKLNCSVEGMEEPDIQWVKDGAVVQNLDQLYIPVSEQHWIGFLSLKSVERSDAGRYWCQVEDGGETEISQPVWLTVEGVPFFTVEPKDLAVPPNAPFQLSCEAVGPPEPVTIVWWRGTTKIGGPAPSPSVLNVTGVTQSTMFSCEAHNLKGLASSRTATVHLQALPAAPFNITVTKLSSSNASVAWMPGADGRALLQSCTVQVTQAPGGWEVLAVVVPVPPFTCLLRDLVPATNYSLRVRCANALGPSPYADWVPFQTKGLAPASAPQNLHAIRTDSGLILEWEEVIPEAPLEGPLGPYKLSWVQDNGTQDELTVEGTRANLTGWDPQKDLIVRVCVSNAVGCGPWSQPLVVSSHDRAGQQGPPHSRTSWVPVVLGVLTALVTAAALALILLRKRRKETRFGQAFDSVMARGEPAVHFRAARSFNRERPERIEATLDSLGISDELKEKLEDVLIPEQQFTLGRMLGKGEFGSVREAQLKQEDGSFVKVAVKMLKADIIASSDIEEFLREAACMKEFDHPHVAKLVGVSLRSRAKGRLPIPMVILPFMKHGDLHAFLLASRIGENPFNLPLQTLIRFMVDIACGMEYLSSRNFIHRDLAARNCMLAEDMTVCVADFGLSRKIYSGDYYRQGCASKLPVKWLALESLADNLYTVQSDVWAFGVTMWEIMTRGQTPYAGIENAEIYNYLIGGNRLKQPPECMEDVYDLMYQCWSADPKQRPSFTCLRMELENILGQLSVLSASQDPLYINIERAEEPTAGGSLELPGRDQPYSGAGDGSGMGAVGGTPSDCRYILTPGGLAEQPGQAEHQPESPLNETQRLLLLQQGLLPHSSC

Sequence of Mer tyrosine kinase (Q12866 21-999): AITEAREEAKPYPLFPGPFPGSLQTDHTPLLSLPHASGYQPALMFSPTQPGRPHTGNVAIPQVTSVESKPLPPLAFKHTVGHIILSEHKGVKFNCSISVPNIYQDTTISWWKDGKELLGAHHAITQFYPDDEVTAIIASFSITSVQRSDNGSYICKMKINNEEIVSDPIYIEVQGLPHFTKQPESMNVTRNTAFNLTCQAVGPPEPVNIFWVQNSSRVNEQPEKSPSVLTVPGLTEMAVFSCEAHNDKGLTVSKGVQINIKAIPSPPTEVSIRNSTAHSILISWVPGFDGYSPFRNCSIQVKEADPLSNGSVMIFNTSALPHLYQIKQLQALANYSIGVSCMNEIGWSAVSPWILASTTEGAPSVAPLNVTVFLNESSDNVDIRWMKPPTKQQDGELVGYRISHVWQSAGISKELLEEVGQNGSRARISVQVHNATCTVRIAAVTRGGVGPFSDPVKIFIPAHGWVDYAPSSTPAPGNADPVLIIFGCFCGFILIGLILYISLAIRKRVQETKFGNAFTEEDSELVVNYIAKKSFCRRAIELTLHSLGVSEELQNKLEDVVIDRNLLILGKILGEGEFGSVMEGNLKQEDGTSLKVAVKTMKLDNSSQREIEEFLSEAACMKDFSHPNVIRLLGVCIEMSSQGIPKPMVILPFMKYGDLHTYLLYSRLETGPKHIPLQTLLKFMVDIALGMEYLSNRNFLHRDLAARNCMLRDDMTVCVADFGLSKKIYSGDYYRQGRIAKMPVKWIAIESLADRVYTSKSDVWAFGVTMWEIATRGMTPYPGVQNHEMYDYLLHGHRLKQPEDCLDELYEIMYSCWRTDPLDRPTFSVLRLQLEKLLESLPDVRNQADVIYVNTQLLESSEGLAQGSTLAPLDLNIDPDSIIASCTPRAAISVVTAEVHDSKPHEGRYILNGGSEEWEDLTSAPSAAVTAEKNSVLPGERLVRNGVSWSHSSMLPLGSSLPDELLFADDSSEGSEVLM

| SMILES | IC50 (Mer tyrosine kinase) | IC50 (Tyro3 tyrosine kinase) |
| --- | --- | --- |
| CCC[C@H](C)Nc1ncc2c(C3CCN(C(=O)c4cc(C)nc(C)c4)CC3)cn([C@H]3CC[C@H](O)CC3)c2n1 [compound 34, (2,6-dimethylpyridin-4-yl)(4-(7-((1R,4S)-4-hydroxycyclohexyl)-2-(((S)-pentan-2-yl)amino)-7H-pyrrolo[2,3-d]pyrimidin-5-yl)piperidin-1-yl)methanone] | < 0.01 µM | 0.01 to 0.1 µM |
| CCC[C@H](C)Nc1ncc2c(C3CCN(C(=O)C4CCN(CCF)CC4)CC3)cn([C@H]3CC[C@H](O)CC3)c2n1 [compound 36, (1-(2-fluoroethyl)piperidin-4-yl)(4-(7-((1R,4S)-4-hydroxycyclohexyl)-2-(((S)-pentan-2-yl)amino)-7H-pyrrolo[2,3-d]pyrimidin-5-yl)piperidin-1-yl)methanone] | < 0.01 µM | 0.01 to 0.1 µM |
| CC[C@H]1C[C@@H]1Nc1ncc2c(C3CCN(C(=O)c4ccncc4)CC3)cn([C@H]3CC[C@H](O)CC3)c2n1 [compound 42, (4-(2-(((1S,2S)-2-ethylcyclopropyl)amino)-7-((1R,4S)-4-hydroxycyclohexyl)-7H-pyrrolo[2,3-d]pyrimidin-5-yl)piperidin-1-yl)(pyridin-4-yl)methanone] | < 0.01 µM | 0.1 to 1 µM |
| CC[C@@H]1C[C@H]1Nc1ncc2c(C3CCN(C(=O)c4ccncc4)CC3)cn([C@H]3CC[C@H](O)CC3)c2n1 [compound 43, (4-(2-(((1R,2R)-2-ethylcyclopropyl)amino)-7-((1R,4R)-4-hydroxycyclohexyl)-7H-pyrrolo[2,3-d]pyrimidin-5-yl)piperidin-1-yl)(pyridin-4-yl)methanone] | < 0.01 µM | 0.1 to 1 µM |
| CCC[C@H](C)Nc1ncc2c(C3CCN(C4CCN(C)CC4)CC3)cn([C@H]3CC[C@H](O)CC3)c2n1 [compound 52, (1S,4R)-4-(5-(1′-methyl-[1,4′-bipiperidin]-4-yl)-2-(((S)-pentan-2-yl)amino)-7H-pyrrolo[2,3-d]pyrimidin-7-yl)cyclohexan-1-ol] | < 0.01 µM | 0.01 to 0.1 µM |
| CCC[C@H](C)Nc1ncc2c(C3CCN(CC4CCN(C)CC4)CC3)cn([C@H]3CC[C@H](O)CC3)c2n1 [compound 54, (1S,4R)-4-(5-(1-((1-methylpiperidin-4-yl)methyl)piperidin-4-yl)-2-(((S)-pentan-2-yl)amino)-7H-pyrrolo[2,3-d]pyrimidin-7-yl)cyclohexan-1-ol] | < 0.01 µM | 0.01 to 0.1 µM |
| CCC[C@H](C)Nc1ncc2c(C3CCN(C(=O)c4nccs4)CC3)cn([C@H]3CC[C@H](O)CC3)c2n1 [compound 57, (4-(7-((1R,4S)-4-hydroxycyclohexyl)-2-(((S)-pentan-2-yl)amino)-7H-pyrrolo[2,3-d]pyrimidin-5-yl)piperidin-1-yl)(thiazol-2-yl)methanone] | < 0.01 µM | 0.1 to 1 µM |
| CCC[C@H](C)Nc1ncc2c(C3CCN(C(=O)c4cncs4)CC3)cn([C@H]3CC[C@H](O)CC3)c2n1 [compound 59, (4-(7-((1R,4S)-4-hydroxycyclohexyl)-2-(((S)-pentan-2-yl)amino)-7H-pyrrolo[2,3-d]pyrimidin-5-yl)piperidin-1-yl)(thiazol-5-yl)methanone] | < 0.01 µM | 0.01 to 0.1 µM |
| CCC[C@H](C)Nc1ncc2c(C3CCN(C(=O)c4ccc[nH]4)CC3)cn([C@H]3CC[C@H](O)CC3)c2n1 [compound 60, (4-(7-((1R,4S)-4-hydroxycyclohexyl)-2-(((S)-pentan-2-yl)amino)-7H-pyrrolo[2,3-d]pyrimidin-5-yl)piperidin-1-yl)(1H-pyrrol-2-yl)methanone] | < 0.01 µM | 0.1 to 1 µM |
| CCC[C@H](C)Nc1ncc2c(C3CCN(C(=O)c4cc[nH]c4)CC3)cn([C@H]3CC[C@H](O)CC3)c2n1 [compound 61, (4-(7-((1R,4S)-4-hydroxycyclohexyl)-2-(((S)-pentan-2-yl)amino)-7H-pyrrolo[2,3-d]pyrimidin-5-yl)piperidin-1-yl)(1H-pyrrol-3-yl)methanone] | < 0.01 µM | 0.1 to 1 µM |
| CCC[C@H](C)Nc1ncc2c(C3CCN(C(=O)c4ncc[nH]4)CC3)cn([C@H]3CC[C@H](O)CC3)c2n1 [compound 62, (4-(7-((1r,4S)-4-hydroxycyclohexyl)-2-(((S)-pentan-2-yl)amino)-7H-pyrrolo[2,3-d]pyrimidin-5-yl)piperidin-1-yl)(1H-imidazol-2-yl)methanone] | < 0.01 µM | 0.1 to 1 µM |
| CCC(CC)CNc1ncc2c(C3CCN(C(=O)c4cc(C)nc(C)c4)CC3)cn([C@H]3CC[C@H](O)CC3)c2n1 [compound 69, (2,6-dimethylpyridin-4-yl)(4-(2-((2-ethylbutyl)amino)-7-((1r,4r)-4-hydroxycyclohexyl)-7H-pyrrolo[2,3-d]pyrimidin-5-yl)piperidin-1-yl)methanone] | < 0.01 µM | 0.01 to 0.1 µM |
| Cc1cc(C(=O)N2CCC(c3cn([C@H]4CC[C@H](O)CC4)c4nc(NCCC5CC5)ncc34)CC2)cc(C)n1 [compound 72, (4-(2-((2-cyclopropylethyl)amino)-7-((1R,4R)-4-hydroxycyclohexyl)-7H-pyrrolo[2,3-d]pyrimidin-5-yl)piperidin-1-yl)(2,6-dimethylpyridin-4-yl)methanone] | < 0.01 µM | 0.1 to 1 µM |
| Cc1cc(C(=O)N2CCC(c3cn([C@H]4CC[C@H](O)CC4)c4nc(N[C@@H](C)c5ccc(F)cc5)ncc34)CC2)cc(C)n1 [compound 75, (2,6-dimethylpyridin-4-yl)(4-(2-(((S)-1-(4-fluorophenyl)ethyl)amino)-7-((1R,4S)-4-hydroxycyclohexyl)-7H-pyrrolo[2,3-d]pyrimidin-5-yl)piperidin-1-yl)methanone] | < 0.01 µM | 0.01 to 0.1 µM |
| CCC[C@H](C)Nc1ncc2c(C3CCN(C(=O)c4cc(OC)cc(OC)c4)CC3)cn([C@H]3CC[C@H](O)CC3)c2n1 [compound 80, (3,5-dimethoxyphenyl)(4-(7-((1R,4S)-4-hydroxycyclohexyl)-2-(((S)-pentan-2-yl)amino)-7H-pyrrolo[2,3-d]pyrimidin-5-yl)piperidin-1-yl)methanone] | < 0.01 µM | 0.1 to 1 µM |
| CCC[C@H](C)Nc1ncc2c(C3CCN(C(=O)c4cc(F)cc(F)c4)CC3)cn([C@H]3CC[C@H](O)CC3)c2n1 [compound 81, (3,5-difluorophenyl)(4-(7-((1R,4S)-4-hydroxycyclohexyl)-2-(((S)-pentan-2-yl)amino)-7H-pyrrolo[2,3-d]pyrimidin-5-yl)piperidin-1-yl)methanone] | < 0.01 µM | 0.1 to 1 µM |

Next, values leading:

| IC50 (Mer tyrosine kinase) | IC50 (Tyro3 tyrosine kinase) | SMILES |
| --- | --- | --- |
| < 0.01 µM | 0.01 to 0.1 µM | CCC[C@H](C)Nc1ncc2c(C3CCN(C(=O)C4CCN(C)C4)CC3)cn([C@H]3CC[C@H](O)CC3)c2n1 (stereo partly drawn) [compound 18, (4-(7-((1R,4S)-4-hydroxycyclohexyl)-2-(((S)-pentan-2-yl)amino)-7H-pyrrolo[2,3-d]pyrimidin-5-yl)piperidin-1-yl)(1-methylpyrrolidin-3-yl)methanone] |
| < 0.01 µM | 0.01 to 0.1 µM | CCC[C@H](C)Nc1ncc2c(C3CCN(C(=O)[C@@H]4CCCCN4)CC3)cn([C@H]3CC[C@H](O)CC3)c2n1 [compound 19, (4-(7-((1R,4S)-4-hydroxycyclohexyl)-2-(((S)-pentan-2-yl)amino)-7H-pyrrolo[2,3-d]pyrimidin-5-yl)piperidin-1-yl)((S)-piperidin-2-yl)methanone] |
| < 0.01 µM | 0.1 to 1 µM | CCC[C@H](C)Nc1ncc2c(C3CCN(C(=O)[C@H]4CCCCN4)CC3)cn([C@H]3CC[C@H](O)CC3)c2n1 [compound 20, (4-(7-((1R,4S)-4-hydroxycyclohexyl)-2-(((S)-pentan-2-yl)amino)-7H-pyrrolo[2,3-d]pyrimidin-5-yl)piperidin-1-yl)((R)-piperidin-2-yl)methanone] |
| < 0.01 µM | 0.01 to 0.1 µM | CCC[C@H](C)Nc1ncc2c(C3CCN(C(=O)[C@@H]4CCCNC4)CC3)cn([C@H]3CC[C@H](O)CC3)c2n1 [compound 23, (4-(7-((1R,4S)-4-hydroxycyclohexyl)-2-(((S)-pentan-2-yl)amino)-7H-pyrrolo[2,3-d]pyrimidin-5-yl)piperidin-1-yl)((R)-piperidin-3-yl)methanone] |
| < 0.01 µM | 0.01 to 0.1 µM | CCC[C@H](C)Nc1ncc2c(C3CCN(C(=O)[C@H]4CCCNC4)CC3)cn([C@H]3CC[C@H](O)CC3)c2n1 [compound 24, (4-(7-((1R,4S)-4-hydroxycyclohexyl)-2-(((S)-pentan-2-yl)amino)-7H-pyrrolo[2,3-d]pyrimidin-5-yl)piperidin-1-yl)((S)-piperidin-3-yl)methanone] |
| < 0.01 µM | 0.01 to 0.1 µM | CCC[C@H](C)Nc1ncc2c(C3CCN(C(=O)c4ccccc4)CC3)cn([C@H]3CC[C@H](O)CC3)c2n1 [compound 30, (4-(7-((1R,4S)-4-hydroxycyclohexyl)-2-(((S)-pentan-2-yl)amino)-7H-pyrrolo[2,3-d]pyrimidin-5-yl)piperidin-1-yl)(phenyl)methanone] |
| < 0.01 µM | 0.1 to 1 µM | CCC[C@H](C)Nc1ncc2c(C3CCN(C(=O)c4ccc(OC)cc4)CC3)cn([C@H]3CC[C@H](O)CC3)c2n1 [compound 31, (4-(7-((1R,4S)-4-hydroxycyclohexyl)-2-(((S)-pentan-2-yl)amino)-7H-pyrrolo[2,3-d]pyrimidin-5-yl)piperidin-1-yl)(4-methoxyphenyl)methanone] |
| < 0.01 µM | 0.1 to 1 µM | CCC[C@H](C)Nc1ncc2c(C3CCN(C(=O)c4cccc(OC)c4)CC3)cn([C@H]3CC[C@H](O)CC3)c2n1 [compound 32, (4-(7-((1R,4S)-4-hydroxycyclohexyl)-2-(((S)-pentan-2-yl)amino)-7H-pyrrolo[2,3-d]pyrimidin-5-yl)piperidin-1-yl)(3-methoxyphenyl)methanone] |
| < 0.01 µM | 0.1 to 1 µM | CCC[C@H](C)Nc1ncc2c(C3CCN(C(=O)c4ccccc4OC)CC3)cn([C@H]3CC[C@H](O)CC3)c2n1 [compound 33, (4-(7-((1R,4S)-4-hydroxycyclohexyl)-2-(((S)-pentan-2-yl)amino)-7H-pyrrolo[2,3-d]pyrimidin-5-yl)piperidin-1-yl)(2-methoxyphenyl)methanone] |
